Data taken from article PMC9304322, “Targeting retinoic acid receptor alpha-corepressor interaction activates chaperone-mediated autophagy and protects against retinal degeneration” (Nature Communications, 2022).
Where “and” joins values, the source holds several entries; their conditions need not be identical. Equal values may be shown once.

Legend:
[1] = biological target: T1, RARα and the N-CoR1 peptide (Homo sapiens, UniProt P10276); assay: Fluorescence polarization binding assay, RARα LBD and FITC-N-CoR1 peptide; details: 10 μΜ compound
T1 construct: human RARα (residues 176-421); His6-SUMO (N, cleaved yes); made in house; host or cells: Escherichia coli BL21(DE3) RIL
Description: The ligand binding domain (LBD) of the human RARα (residues 176-421) was fused to a preceding His6-SUMO tag separated by a ubiquitin-like protease (ULP1) cleavage site and was expressed in Escherichia coli BL21(DE3) RIL cell strain. Cells were grown at 37 °C in LB medium supplemented with 50 µg/mL kanamycin until OD600 reached about 0.8. Expression of T7 polymerase was induced by addition of isopropyl-b-d-thiogalactoside (IPTG, #10724815001) to a final concentration of 0.8 mM and cells were incubated at 20 °C overnight. Cell cultures were harvested by centrifugation at 8,000 × g for 15 mins. The cell pellet from 1 liter of LB growth was resuspended in 50 mL lysis buffer (20 mM Tris-HCl pH 8, 500 mM NaCl, 25 mM imidazole) supplemented with one complete™, EDTA-free protease inhibitor tablet (Roche Applied Science, #11873580001). The suspension was lysed using a high pressure homogenizer and centrifuged at 35,000 × g at 4 °C for 45 minutes. […]
The fluorescein-tagged peptide of N-CoR1, FITC-Ahx-[…] […] Fluorescence polarization assays (FPA) were performed using established procedures. […] Fluorescence polarization was measured at 30 min on a F200 PRO microplate reader (TECAN) with the excitation wavelength set at 470 nm and emission measured at 530 nm. EC50 values were calculated by nonlinear regression analysis of competitive binding curves using GraphPad Prism software.

[2] = system: lamp2a mRNA; assay: lamp2a mRNA in hippocampus of treated KFERQ-Dendra mice; type: in vivo, mouse; details: for Fig. 3e value relative to Vehicle: single replicate values, one sample t test; for mRNA levels of lamp2a (Fig. 4d), individual mice / mRNA levels of lamp2a (Fig. 4d), mean: hippocampus, i.p. 30 mg/kg bw daily for three days, vehicle mean = 1.000; for mRNA levels of lamp2a (Fig. 4d), individual mice: 30 mg/kg; for mRNA levels of lamp2a (Fig. 4d), mean: n = 4 mice
Description: C57BL/6 J mice wild-type (WT) and homozygous for the Pde6 mutation (rd10 mouse model of retinal degeneration) were obtained from The Jackson Laboratory and experiments were performed at the age indicated in each part of the study. C57BL/6 KFERQ-Dendra mice were generated by back-crossing FVB KFERQ-Dendra mice with wild-type C57BL/6 mice for 8 generations. Both male and female animals were used in this study in equally distribution groups. However, results from both sexes were pooled, because of absence of significant differences in any of the parameters analyzed after statistical analysis with a mixed model of two-way ANOVA sex and treatment as independent variables and the corresponding measure as dependent variable. All animals were housed in a barrier-controlled facility (19–23 °C 30–60% relative humidity; 12 h light/dark cycle) with ad libitum access to standard chow pellets (protein 19 gm%/carbohydrate 67 gm%/fat 4 gm%) and water. For animal administration of CA compounds, a formula containing 30% PEG 400 (Sigma, #8.0745), 65% of 5% glucose solution, 5% Tween 80 (Sigma, #P1754) was used to dissolve them. CA compounds were prepared freshly by adding 5% DMSO and sonicating for 1 h. Treatment of KFERQ-Dendra mice with the CA compounds was done at 4 months of age by i.p. daily injection of 30 mg/kg bw or vehicle for three consecutive days and tissues collected 6 h after the last injection. In the case of rd10 mice, animals were daily injected from P18 to P25 with CA77 (40 mg/kg bw). In the case of intravitreal administration, a single intravitreal injection was applied at P18 with CA77 (40 µM) in DMSO/PBS and the contralateral eye was injected with PBS and DMSO at same concentration. At P26, mice were sacrificed and eyes fixed overnight with 4% PFA (Sigma, #P6148) in PBS at 4 °C for immunofluorescence or retinas dissected and immediately frozen for biochemistry. Distribution of animals in the vehicle or treatment group was done randomly. ICR (CD-1) outbred 3 months old male mice from ENVIGO were used for the pharmacokinetic studies (see pharmacokinetic section for housing and handling details). All animal studies and procedures complied with ethical regulations, were performed in accordance with the European Union guidelines and the ARVO Statement for the Use of Animals in Ophthalmic and Vision Research and were approved by the Institutional Animal Care and Use Committee at the Albert Einstein College of Medicine, the CSIC Bioetica Comite and approved by the Comunidad de Madrid, PROEX232/17.
RNA was extracted from individual retinas or tissue sections (brain, liver). Total RNA from retinas was extracted using TRIzol Reagent (Invitrogen, # 15596-018), and reverse transcription was performed using the High-Capacity cDNA Reverse Transcription Kit (Applied Biosystems, # 4374966) according to the manufacturer’s instructions. Quantitative real-time PCR was performed in a Light Cycler 480 Instrument (Roche) with Taqman LightCycler 480 probes Master Mix (Roche, #4887301001) using Taqman assays (Life Technologies). For cells in culture, RNA was extracted using RNeasy Plus Mini Kit (Qiagen, #74034), and reverse transcription was performed using Superscript III (Invitrogen, #18080051). Quantitative RT-PCR analysis were performed using Power SYBR Green PCR Master Mix (Applied Biosystems, #4368708) on a StepOne Plus Real-Time PCR System (Applied Biosystems). Mm01184405_m1 probe (Thermofisher) was used for rhodopsin and the sequence of all the other probes used for qPCR is included in Supplementary Table 2.

[3] = system: NIH3T3; assay: Cell viability after paraquat (CellTiter-Blue); type: cell-based, mouse
[4] = system: rd10 mice; details: mouse, in vivo, ip, 40 mg/kg

T1 sequence (P10276 176-421, other chains not shown): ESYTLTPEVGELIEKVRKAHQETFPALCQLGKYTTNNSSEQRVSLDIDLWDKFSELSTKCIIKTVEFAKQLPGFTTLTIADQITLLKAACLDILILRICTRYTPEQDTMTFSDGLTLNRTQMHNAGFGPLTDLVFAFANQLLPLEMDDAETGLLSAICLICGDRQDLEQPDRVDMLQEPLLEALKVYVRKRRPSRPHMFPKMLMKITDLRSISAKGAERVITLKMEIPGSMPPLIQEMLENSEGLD

| Compound | N-CoR1 peptide binding to RARα in fluorescence polarization assays [1] | Fig. 3e value relative to Vehicle [2] | mRNA levels of lamp2a (Fig. 4d), individual mice [2] | mRNA levels of lamp2a (Fig. 4d), mean [2] | protection against paraquat, compound added after the insult ([3]; 2 μM or 10 μM, compared with AR7) | cell death by paraquat, compound administered before the insult ([3]; 12 h treatment with 2 μM or 10 μM before PQ) | ERG amplitude of b-mixed, b-phot and flicker waves [4] |
| --- | --- | --- | --- | --- | --- | --- | --- |
| Clc1ccc2c(c1)OCC(c1ccc(-c3ccccc3)cc1)=N2 [CA39] | enhanced N-CoR1 peptide binding to RARα | 1.07 and 1.28 and 1.20 and 1.32 and 1.95 and 2.13 | 1.581 and 1.814 and 1.628 and 1.163 | 1.547 | significantly higher protection than AR7 | reduced cell death |  |
| CC(=O)Nc1ccc(C2=Nc3ccc(Cl)cc3OC2)cc1 [CA77] | enhanced N-CoR1 peptide binding to RARα | 2.04 and 2.28 and 1.87 and 1.53 and 2.54 and 2.31 | 1.395 and 1.349 and 1.27 and 1.907 | 1.480 |  |  | significantly higher amplitude |
